Measurements published in patent publication US5804603A, “Synthesized β-adrenergic blockers derivatives of guaiacol” (National Science Council, priority 1995, dated 1998).
Read-outs that look alike come from different tables or passages of the source.

Experiments:
[1] = system: heart rate and blood pressure; assay: Heart rate and blood pressure changes of rats induced by guaiacoxypropanolamines; format: in vivo; details: 1.0 mg/kg iv, means ± SE (n = 8)
[2] = biological target: T1, Isolated Guinea Pig Atria (Cavia porcellus, UniProt H0W3H1); assay: pA2 on isolated guinea pig atria; format: cell-based; details: for Kb / pA2, positive chronotropic / pA2, positive inotropic: isolated guinea pig atria; for Potency ratio (PR), positive chronotropic / Potency ratio (PR), positive inotropic: with respect to propranolol
T1 construct: Isolated Guinea Pig Atria; from tissue; host or cells: guinea pig atria (isolated organ)
T1 sequence (H0W3H1 1-470): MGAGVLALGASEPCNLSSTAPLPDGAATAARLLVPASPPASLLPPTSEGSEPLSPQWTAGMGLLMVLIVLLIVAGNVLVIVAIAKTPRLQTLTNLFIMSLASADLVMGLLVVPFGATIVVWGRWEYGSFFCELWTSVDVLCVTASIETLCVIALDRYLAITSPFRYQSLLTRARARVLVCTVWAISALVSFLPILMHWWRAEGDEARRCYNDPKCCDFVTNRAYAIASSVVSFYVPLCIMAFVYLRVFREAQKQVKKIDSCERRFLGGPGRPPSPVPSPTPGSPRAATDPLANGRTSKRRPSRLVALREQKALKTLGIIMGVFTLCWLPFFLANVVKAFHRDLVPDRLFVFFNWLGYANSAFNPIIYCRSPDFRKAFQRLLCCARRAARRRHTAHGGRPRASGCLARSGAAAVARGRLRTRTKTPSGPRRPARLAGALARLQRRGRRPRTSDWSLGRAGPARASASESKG
Excerpt: The determination of the pA2 is made from experiments in which a fixed concentration of the antagonist is used along with graded concentrations of an agonist acting on the same receptor. The presence of the antagonist shifts the agonist dose-response curve to the right.

[3] = read-out: pA2, positive chronotropic (converted)
[4] = read-out: pA2, positive inotropic (converted)

| Kb [2, 3] | Kb [2, 4] | Potency ratio (PR), positive chronotropic [2] | Potency ratio (PR), positive inotropic [2] | pA2, positive chronotropic [2] | pA2, positive inotropic [2] | SMILES | change in BP ([1]; 5 min after dosing) | change in HR ([1]; 5 min after dosing) | change in BP ([1]; 10 min after dosing) | change in HR ([1]; 10 min after dosing) | change in BP ([1]; 15 min after dosing) | change in HR ([1]; 15 min after dosing) | change in BP ([1]; 30 min after dosing) | change in HR ([1]; 30 min after dosing) | change in BP ([1]; 60 min after dosing) | change in HR ([1]; 60 min after dosing) |
| --- | --- | --- | --- | --- | --- | --- | --- | --- | --- | --- | --- | --- | --- | --- | --- | --- |
|  |  | 0.07 | 0.07 | 6.93 ± 0.09 | 7.27 ± 0.09 | CCCCCCCCC(=O)NCc1ccc(OCC(O)CNCC)c(OC)c1 (stereo not drawn) [NHC2 H5, N-[4-o-(2-hydroxy-3-(ethylamino)propoxy)-3-methoxybenzyl]-nonamide] | 7.44 ± 3.16 mmHg | -38.33 ± 5.94 beats/min | 2.56 ± 2.56 mmHg | -32.22 ± 5.36 beats/min | 1.11 ± 1.78 mmHg | -28.00 ± 7.02 beats/min | -2.44 ± 3.05 mmHg | -21.11 ± 8.75 beats/min | 1.88 ± 1.62 mmHg | 2.56 ± 11.66 beats/min |
| 17 nM | 8.51 nM | 0.45 | 0.45 |  |  | CCCCCCCCC(=O)NCc1ccc(OCC(O)CNC(C)C)c(OC)c1 (stereo not drawn) [NH-i-C3 H7, N-[4-o-(2-hydroxy-3-(isopropylamino)propoxy)-3-methoxybenzyl]-nonamide] | -0.44 ± 2.05 mmHg | -50.22 ± 7.29 beats/min | -1.22 ± 2.29 mmHg | -40.78 ± 7.64 beats/min | -2.89 ± 2.03 mmHg | -35.44 ± 7.32 beats/min | -6.67 ± 2.51 mmHg | -32.67 ± 9.24 beats/min | -1.33 ± 0.98 mmHg | -20.00 ± 6.15 beats/min |
|  |  | 0.05 | 0.21 | 6.79 ± 0.01 | 7.75 ± 0.07 | CCCCCCCCC(=O)NCc1ccc(OCC(O)CNCCC)c(OC)c1 (stereo not drawn) [NH-n-C3 H7, N-[4-o-(2-hydroxy-3-(n-propylamino)propoxy)-3-methoxybenzyl]-nonamide] | -1.78 ± 1.71 mmHg | -42.56 ± 7.65 beats/min | -2.56 ± 1.47 mmHg | -35.33 ± 6.05 beats/min | -3.11 ± 1.81 mmHg | -32.00 ± 5.25 beats/min | -2.44 ± 1.66 mmHg | -14.11 ± 5.16 beats/min | -0.56 ± 0.50 mmHg | -6.89 ± 4.32 beats/min |
| 295 nM | 74.1 nM | 0.03 | 0.05 |  |  | CCCCCCCCC(=O)NCc1ccc(OCC(O)CNC)c(OC)c1 (stereo not drawn) [NHCH3, N-[4-o-(2-hydroxy-3-(methylamino)propoxy)-3-methoxybenzyl]-nonamide] | -1.11 ± 2.31 mmHg | -34.56 ± 6.79 beats/min | -0.22 ± 2.10 mmHg | -17.33 ± 5.31 beats/min | -0.56 ± 1.65 mmHg | -12.22 ± 4.33 beats/min | 1.89 ± 2.14 mmHg | 14.56 ± 7.73 beats/min | 0.78 ± 1.37 mmHg | 4.78 ± 4.37 beats/min |

The next lines start with the compound.

| SMILES | Kb [2, 3] | Kb [2, 4] | Potency ratio (PR), positive chronotropic [2] | Potency ratio (PR), positive inotropic [2] | pA2, positive chronotropic [2] | pA2, positive inotropic [2] | change in BP ([1]; 5 min after dosing) | change in HR ([1]; 5 min after dosing) | change in BP ([1]; 10 min after dosing) | change in HR ([1]; 10 min after dosing) | change in BP ([1]; 15 min after dosing) | change in HR ([1]; 15 min after dosing) | change in BP ([1]; 30 min after dosing) | change in HR ([1]; 30 min after dosing) | change in BP ([1]; 60 min after dosing) | change in HR ([1]; 60 min after dosing) |
| --- | --- | --- | --- | --- | --- | --- | --- | --- | --- | --- | --- | --- | --- | --- | --- | --- |
| CCCCCCCCC(=O)NCc1ccc(OCC(O)CNCCCCCC)c(OC)c1 (stereo not drawn) [NH-n-C6 H13, N-[4-o-(2-hydroxy-3-(n-hexylamino)propoxy)-3-methoxybenzyl]-nonamide] | 933 nM | 66.1 nM | 0.01 | 0.06 |  |  | -2.22 ± 1.42 mmHg | -35.56 ± 8.71 beats/min | -2.89 ± 1.61 mmHg | -24.11 ± 3.31 beats/min | -4.44 ± 2.93 mmHg | -14.89 ± 7.10 beats/min | -2.11 ± 2.77 mmHg | -12.67 ± 6.59 beats/min | 1.89 ± 1.13 mmHg | -8.00 ± 5.64 beats/min |
| CCCCCCCCC(=O)NCc1ccc(OCC(O)CNCC(C)C)c(OC)c1 (stereo not drawn) [NH-i-C4 H9, N-[4-o-(2-hydroxy-3-(iso-butylamino)propoxy)-3-methoxybenzyl]-nonamide] | 117 nM | 26.9 nM | 0.06 | 0.14 |  |  | -2.75 ± 2.29 mmHg | -39.88 ± 8.60 beats/min | 1.63 ± 2.07 mmHg | -35.25 ± 7.98 beats/min | 1.63 ± 1.71 mmHg | -27.13 ± 7.76 beats/min | 2.00 ± 1.86 mmHg | 4.13 ± 8.20 beats/min | 0.25 ± 1.91 mmHg | 3.13 ± 7.90 beats/min |
| CCCCCCCCC(=O)NCc1ccc(OCC(O)CNC(C)(C)C)c(OC)c1 (stereo not drawn) [NH-t-C4 H9, N-[4-o-(2-hydroxy-3-(tert-butylamino)propoxy)-3-methoxybenzyl]-nonamide] | 39.8 nM | 15.8 nM | 0.19 | 0.24 |  |  | 3.13 ± 5.66 mmHg | -45.00 ± 4.20 beats/min | 3.38 ± 5.08 mmHg | -37.75 ± 4.44 beats/min | 2.38 ± 5.41 mmHg | -29.50 ± 5.31 beats/min | 1.25 ± 5.45 mmHg | -24.88 ± 8.47 beats/min | 4.63 ± 3.51 mmHg | -18.50 ± 5.13 beats/min |
| CCCCCCCCC(=O)NCc1ccc(OCC(O)CNC2CC2)c(OC)c1 (stereo not drawn) [NH-c-C3 H5, N-[4-o-(2-hydroxy-3-(cyclopropylamino)propoxy)-3-methoxybenzyl]-nonamide] |  |  |  |  |  |  | -0.11 ± 1.09 mmHg | -47.67 ± 8.88 beats/min | 3.11 ± 2.78 mmHg | -38.89 ± 9.47 beats/min | 3.89 ± 2.92 mmHg | -23.67 ± 10.01 beats/min | 3.67 ± 4.10 mmHg | -11.89 ± 8.73 beats/min | 2.22 ± 2.32 mmHg | -2.67 ± 4.14 beats/min |
| CCCCCCCCC(=O)NCc1ccc(OCC(O)CNCCCC)c(OC)c1 (stereo not drawn) [NH-n-C4 H9, N-[4-o-(2-hydroxy-3-(n-butylamino)propoxy)-3-methoxybenzyl]-nonamide] | 58.9 nM | 53.7 nM | 0.13 | 0.07 |  |  | -0.22 ± 1.74 mmHg | -40.00 ± 3.74 beats/min | -1.22 ± 1.59 mmHg | -33.78 ± 5.08 beats/min | -1.22 ± 1.77 mmHg | -26.22 ± 6.56 beats/min | 0.11 ± 1.54 mmHg | -15.33 ± 5.24 beats/min | 3.33 ± 2.82 mmHg | -3.67 ± 2.55 beats/min |
| CCCCCCCCC(=O)NCc1ccc(OCC(O)CNC2CCCCC2)c(OC)c1 (stereo not drawn) [NH-c-C6 H11, N-[4-o-(2-hydroxy-3-(cyclohexylamino)propoxy)-3-methoxybenzyl]-nonamide] |  |  |  |  |  |  | -4.11 ± 2.89 mmHg | -32.33 ± 15.44 beats/min | -4.22 ± 2.29 mmHg | -28.44 ± 16.54 beats/min | -3.67 ± 2.39 mmHg | -11.67 ± 9.26 beats/min | 1.33 ± 2.69 mmHg | -1.78 ± 8.96 beats/min | 0.67 ± 2.45 mmHg | 2.78 ± 9.64 beats/min |
